Columns and labels:
[1] = target: Serine/threonine-protein kinase pim-1 (Homo sapiens, UniProt P11309)
Description: Inhibition of PIM1 (unknown origin)

[2] = target: Serine/threonine-protein kinase pim-3 (Homo sapiens, UniProt Q86V86); assay: Inhibition of PIM3 (unknown origin)
[3] = target: Serine/threonine-protein kinase pim-2 (Homo sapiens, UniProt Q9P1W9); assay: Inhibition of PIM2 (unknown origin)
[4] = test system: HepG2; assay: Cell cycle arrest in human HepG2 cells assessed as accumulation at G2/M phase at 10 uM by FACS analysis relative to control; format: functional
[5] = test system: MV4-11; assay: Growth inhibition of human MV4-11 cells; format: functional, cell-based
[6] = test system: HepG2; assay: Cell cycle arrest in human HepG2 cells assessed as accumulation at sub-G1 phase at 10 uM by FACS analysis relative to control; format: functional
[7] = test system: HepG2; assay: Cell cycle arrest in human HepG2 cells assessed as accumulation at S phase at 10 uM by FACS analysis relative to control; format: functional
[8] = test system: HepG2; assay: Cell cycle arrest in human HepG2 cells assessed as accumulation at G0/G1 phase at 10 uM by FACS analysis relative to control; format: functional
[9] = test system: HepG2; assay: Cell cycle arrest in human HepG2 cells assessed as accumulation at G0/G1 phase at 1 uM by FACS analysis relative to control; format: functional
[10] = test system: HepG2; assay: Cell cycle arrest in human HepG2 cells assessed as accumulation at S phase at 1 uM by FACS analysis relative to control; format: functional
[11] = test system: HepG2; assay: Cell cycle arrest in human HepG2 cells assessed as accumulation at G2/M phase at 1 uM by FACS analysis relative to control; format: functional
[12] = test system: HepG2; assay: Cell cycle arrest in human HepG2 cells assessed as accumulation at sub-G1 phase at 1 uM by FACS analysis relative to control; format: functional

Sequence of Serine/threonine-protein kinase pim-2 (Q9P1W9 whole entry): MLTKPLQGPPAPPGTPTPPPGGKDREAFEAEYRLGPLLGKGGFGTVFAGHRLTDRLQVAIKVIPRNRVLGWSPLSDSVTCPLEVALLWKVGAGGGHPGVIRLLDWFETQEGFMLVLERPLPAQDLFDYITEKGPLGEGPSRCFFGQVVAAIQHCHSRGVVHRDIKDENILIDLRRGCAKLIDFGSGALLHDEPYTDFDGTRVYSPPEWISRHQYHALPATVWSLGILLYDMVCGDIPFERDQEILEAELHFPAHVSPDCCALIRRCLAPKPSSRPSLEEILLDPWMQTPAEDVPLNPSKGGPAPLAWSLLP
Sequence of Serine/threonine-protein kinase pim-1 (P11309 whole entry): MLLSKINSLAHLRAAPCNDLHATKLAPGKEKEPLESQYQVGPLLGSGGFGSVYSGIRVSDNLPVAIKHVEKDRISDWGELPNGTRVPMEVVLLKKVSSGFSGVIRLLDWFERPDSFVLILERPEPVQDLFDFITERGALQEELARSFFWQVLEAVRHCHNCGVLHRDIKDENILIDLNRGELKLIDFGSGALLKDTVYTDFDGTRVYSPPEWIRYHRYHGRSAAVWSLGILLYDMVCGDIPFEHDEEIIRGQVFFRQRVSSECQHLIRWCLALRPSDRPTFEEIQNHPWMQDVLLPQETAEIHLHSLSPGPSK

IC50 [1] | IC50 [2] | IC50 [3] | Structure (SMILES) | further results
885 nM | 3050 nM | > 10000 nM | OCCc1cncc(-c2ccc3[nH]cc(-c4ccccc4F)c3c2)n1 | 
21 nM | 50 nM | 2160 nM | CN(C)CCNc1cncc(-c2ccc3[nH]cc(-c4ccc(S(C)(=O)=O)cc4)c3c2)n1 | Activity [4]: 17.9%; IC50 [5]: 7300 nM; Activity [6]: 2.7%; Activity [7]: 20.9%; Activity [8]: 52.5%; Activity [9]: 51.7%; Activity [10]: 20.7%; Activity [11]: 19.3%; Activity [12]: 1.6%
19 nM | 40 nM | 820 nM | CN(C)CCNc1cncc(-c2ccc3[nH]cc(-c4cccc(N)c4)c3c2)n1 | 
35 nM | 69 nM | 2260 nM | CN(C)CCNc1cncc(-c2ccc3[nH]cc(-c4cccc(C(F)(F)F)c4)c3c2)n1 | 
257 nM | 273 nM | > 10000 nM | O=C1NCCN1c1cncc(-c2ccc3[nH]cc(-c4ccccc4F)c3c2)n1 | 
 |  |  | CN1CCC(CNc2ccc3ncc(-c4cccc(OC(F)(F)F)c4)n3n2)CC1 [SGI-1776] | Activity [4]: 1.9%; IC50 [5]: 30 nM; Activity [6]: 52.3%; Activity [7]: 8.3%; Activity [8]: 36.9%; Activity [9]: 44.2%; Activity [10]: 19.8%; Activity [11]: 13.3%; Activity [12]: 16%
7 nM | 19 nM | 560 nM | COc1cccc(-c2c[nH]c3ccc(-c4cncc(NCCN(C)C)n4)cc23)c1 | 
5 nM | 7 nM | 230 nM | NCCNc1cncc(-c2ccc3[nH]cc(-c4ccccc4F)c3c2)n1 | 
195 nM | 368 nM | > 10000 nM | CN(C)CCCNc1cncc(-c2ccc3[nH]cc(-c4ccc(C(F)(F)F)cc4)c3c2)n1 | 
22 nM | 82 nM | 1620 nM | CN(C)CCNc1cncc(-c2ccc3[nH]cc(-c4ccc(F)cc4)c3c2)n1 | 
187 nM | 204 nM | 4350 nM | FC(F)(F)c1ccc(-c2c[nH]c3ccc(-c4cncc(OC5CCNCC5)n4)cc23)cc1 | 
33 nM | 155 nM | 2540 nM | CN(C)CCNc1cncc(-c2ccc3[nH]cc(-c4ccc(C#N)cc4)c3c2)n1 | 
30 nM | 35 nM | 650 nM | CN(C)CCNc1cncc(-c2ccc3[nH]cc(-c4cccc(F)c4)c3c2)n1 | 
9 nM | 22 nM | 645 nM | CN(C)CCNc1cncc(-c2ccc3[nH]cc(-c4cccc(F)c4F)c3c2)n1 | Activity [4]: 0%; IC50 [5]: 2600 nM; Activity [6]: 74.2%; Activity [7]: 3.2%; Activity [8]: 22.6%; Activity [9]: 56%; Activity [10]: 19.2%; Activity [11]: 16.2%; Activity [12]: 2.8%
96 nM | 236 nM | 4440 nM | CN(C)CCNc1cncc(-c2ccc3[nH]cc(-c4ccc(OC(F)(F)F)cc4)c3c2)n1 | 
> 10000 nM | > 10000 nM | > 10000 nM | CCOc1cncc(-c2ccc3[nH]cc(-c4ccccc4)c3c2)n1 | 
9 nM | 26 nM | 700 nM | CN(C)CCNc1cncc(-c2ccc3[nH]cc(-c4ccc(S(N)(=O)=O)cc4)c3c2)n1 | Activity [4]: 14.6%; IC50 [5]: 6800 nM; Activity [6]: 2.4%; Activity [7]: 19.8%; Activity [8]: 58%; Activity [9]: 55.5%; Activity [10]: 21.3%; Activity [11]: 15.3%; Activity [12]: 2.4%
19 nM | 33 nM | 1800 nM | Cc1ccc(-c2c[nH]c3ccc(-c4cncc(NCCN(C)C)n4)cc23)cc1 | 
21 nM | 29 nM | 830 nM | Cc1cccc(-c2c[nH]c3ccc(-c4cncc(NCCN(C)C)n4)cc23)c1 | 
8 nM | 29 nM | 460 nM | CN(C)CCNc1cncc(-c2ccc3[nH]cc(-c4ccc(N)cc4)c3c2)n1 | 
260 nM | 241 nM | 2120 nM | FC(F)(F)c1ccc(-c2c[nH]c3ccc(-c4cncc(N5CCNCC5)n4)cc23)cc1 | 

IC50 [1] | IC50 [2] | IC50 [3] | Structure (SMILES) | further results
9 nM | 30 nM | 870 nM | COc1ccc(-c2c[nH]c3ccc(-c4cncc(NCCN(C)C)n4)cc23)cc1 | 
134 nM | 128 nM | 2780 nM | CN(C)CCNc1cncc(-c2ccc3[nH]cc(-c4cccc(OC(F)(F)F)c4)c3c2)n1 | 
7 nM | 11 nM | 1380 nM | NC1CCCN(c2cncc(-c3ccc4[nH]cc(-c5ccccc5F)c4c3)n2)C1 (stereo unspecified) | 
23 nM | 137 nM | 1430 nM | CN(C)CCNc1cncc(-c2ccc3[nH]cc(-c4cc(C(=O)O)ccc4F)c3c2)n1 | 
> 10000 nM |  |  | Brc1ccc2[nH]cc(-c3ccccc3)c2c1 | 
313 nM | 401 nM | > 10000 nM | CN(C)CCN(C)c1cncc(-c2ccc3[nH]cc(-c4ccc(C(F)(F)F)cc4)c3c2)n1 | 
307 nM | 905 nM | > 10000 nM | CN(C)CCCOc1cncc(-c2ccc3[nH]cc(-c4ccc(C(F)(F)F)cc4)c3c2)n1 | 
209 nM | 475 nM | > 10000 nM | CN(C)CCCN(C)c1cncc(-c2ccc3[nH]cc(-c4ccc(C(F)(F)F)cc4)c3c2)n1 | 
160 nM | 417 nM | 5330 nM | CN(C)CCNc1cncc(-c2ccc3[nH]cc(-c4ccc(-c5ccccc5)cc4)c3c2)n1 | 
5 nM | 10 nM | 259 nM | CN(C)CCNc1cncc(-c2ccc3[nH]cc(-c4ccc(N)c(C#N)c4)c3c2)n1 | Activity [4]: 15.8%; IC50 [5]: 800 nM; Activity [6]: 2.6%; Activity [7]: 23.1%; Activity [8]: 53%; Activity [9]: 52.3%; Activity [10]: 21.7%; Activity [11]: 16.5%; Activity [12]: 3.4%
3 nM | 7 nM |  | CN(C)CCNc1cncc(-c2ccc3[nH]cc(-c4ccnc(N)n4)c3c2)n1 | 
3 nM | 9 nM | 267 nM | CN(C)CCNc1cncc(-c2ccc3[nH]cc(-c4ccc(N)cc4F)c3c2)n1 | IC50 [5]: 1700 nM
21 nM | 60 nM | 770 nM | CN(C)CCNc1cncc(-c2ccc3[nH]cc(-c4cccc(C#N)c4)c3c2)n1 | 
12 nM | 16 nM | 537 nM | Fc1ccccc1-c1c[nH]c2ccc(-c3cncc(N4CCCNCC4)n3)cc12 | 
7 nM | 10 nM | 370 nM | CN(C)CCNc1cncc(-c2ccc3[nH]cc(-c4ccccc4F)c3c2)n1 | 
3 nM | 7 nM | 220 nM | CC(=O)c1ccc(F)c(-c2c[nH]c3ccc(-c4cncc(NCCN(C)C)n4)cc23)c1 | IC50 [5]: 6300 nM
144 nM | 183 nM | 4320 nM | CN(C)CCNc1cncc(-c2ccc3[nH]cc(-c4ccc(F)c(C(F)(F)F)c4)c3c2)n1 | 
443 nM | 877 nM | > 10000 nM | CN(C)CCOc1cncc(-c2ccc3[nH]cc(-c4ccc(C(F)(F)F)cc4)c3c2)n1 | 
256 nM | 589 nM | 7950 nM | CN(C)CCNc1cncc(-c2ccc3[nH]cc(-c4ccc(C(F)(F)F)c(F)c4)c3c2)n1 | 
67 nM | 247 nM | 5800 nM | CN(C)CCNc1cncc(-c2ccc3[nH]cc(-c4ccc(C(F)(F)F)cc4)c3c2)n1 | 
9 nM | 18 nM | 841 nM | CN(C)CCNc1cncc(-c2ccc3[nH]cc(-c4cc(C#N)ccc4F)c3c2)n1 | Activity [4]: 19%; IC50 [5]: 2900 nM; Activity [6]: 5.7%; Activity [7]: 28.3%; Activity [8]: 37.6%; Activity [9]: 53.5%; Activity [10]: 20.6%; Activity [11]: 17%; Activity [12]: 2.4%

Reference: ChEMBL document CHEMBL4118246, “Discovery and evaluation of 3,5-disubstituted indole derivatives as Pim kinase inhibitors” (Bioorg Med Chem Lett, 2018)
